This note sets out measurements from patent publication US4956362A, “Use of carpipramine for the treatment of anxiety and sleep disorders” (Rhone-Poulenc Sante, a French Body Corporate, priority 1988, dated 1990).

Data set [1] in a line: Acute oral toxicity in mice. Conditions: mouse, in vivo, po; administered orally in mice.
The test system of the next data set is mice. The data set can be described thus: Acute oral toxicity in mice. Conditions: mouse, in vivo.
For data set [2], the system named is mescaline-induced heat twitches. The data set can be described thus: Antagonism of mescaline-induced heat twitches in mice. Conditions: Mus musculus, sc, subcutaneously administered, read-out: AD50 (the source's name). It counts as in vivo. As for the experimental part: In this test, the AD50 of subcutaneously administered carpipramine is 8 mg/kg.
The target in data set [3] is T1, central serotonin receptor sites (type S2) (Rattus norvegicus, UniProt P14842).
T1 construct: central serotonin receptor sites (type S2); from tissue; the cited Leysen 1982 method used rat prefrontal/frontal cortex, own knowledge
T1 sequence (P14842 whole entry): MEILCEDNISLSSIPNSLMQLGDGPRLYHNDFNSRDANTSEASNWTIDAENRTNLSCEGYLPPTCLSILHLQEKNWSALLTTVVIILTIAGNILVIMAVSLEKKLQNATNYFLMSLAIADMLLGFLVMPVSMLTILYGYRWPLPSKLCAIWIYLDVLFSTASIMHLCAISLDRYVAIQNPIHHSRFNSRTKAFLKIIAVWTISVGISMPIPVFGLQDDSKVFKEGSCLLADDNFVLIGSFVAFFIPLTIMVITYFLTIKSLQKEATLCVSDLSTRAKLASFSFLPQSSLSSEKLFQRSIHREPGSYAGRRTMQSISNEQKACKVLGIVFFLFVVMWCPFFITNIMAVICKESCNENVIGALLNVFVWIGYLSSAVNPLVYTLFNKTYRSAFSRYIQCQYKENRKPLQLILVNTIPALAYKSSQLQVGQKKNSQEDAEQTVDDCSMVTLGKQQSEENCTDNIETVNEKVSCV
In words: Affinity for central serotonin receptor sites (type S2), tritiated ketanserin binding. The method, then: The affinity of carpipramine for central serotonin receptor sites (type S2) was determined by a technique based on that of J. E. LEYSEN et al., Mol. Pharmacol. 21, 301 (1982), which consists in measuring the affinity of the product for binding sites for tritiated ketanserin. In this test, the IC50 of carpipramine is 3 nM.

`NC(=O)C1(N2CCCCC2)CCN(CCCN2c3ccccc3CCc3ccccc32)CC1` [carpipramine, 5-[3-(4-carbamoyl-4-piperidinopiperidino)-1-propyl]-10,11-dihydrodibenz[b,f]azepine]: in data set [1], the LD50 stood at 250 mg/kg. Moreover, the toxicity result in the data set with mice was “low toxicity”. Also, the ED50 in data set [2] turned out to be 8 mg/kg. In addition, the IC50 in data set [3] is 3 nM.
